pIC50: −log10 of the molar value.
Experiments:
Assay type in all cases: functional, cell-based
OVCAR-5 = experiment: Antiproliferative activity against human OVCAR5 cells assessed as reduction in cell viability after 48 hrs by SRB assay; conditions: OVCAR-5, 48 h
CCRF-CEM = experiment: Antiproliferative activity against human CCRF-CEM cells assessed as reduction in cell viability after 48 hrs by SRB assay
SR = experiment: Antiproliferative activity against human SR cells assessed as reduction in cell viability after 48 hrs by SRB assay
K562 = experiment: Antiproliferative activity against human K562 cells assessed as reduction in cell viability after 48 hrs by SRB assay; conditions: K562, 48 h
SF-539 = experiment: Antiproliferative activity against human SF539 cells assessed as reduction in cell viability after 48 hrs by SRB assay; conditions: SF-539, 48 h
RPMI-8226 = experiment: Antiproliferative activity against human RPMI8226 cells assessed as reduction in cell viability after 48 hrs by SRB assay; conditions: RPMI-8226, 48 h
BT-549 = experiment: Antiproliferative activity against human BT549 cells assessed as reduction in cell viability after 48 hrs by SRB assay; conditions: BT-549, 48 h
SF-268 = experiment: Antiproliferative activity against human SF268 cells assessed as reduction in cell viability after 48 hrs by SRB assay; conditions: SF-268, 48 h
IGROV-1 = experiment: Antiproliferative activity against human IGROV1 cells assessed as reduction in cell viability after 48 hrs by SRB assay; conditions: IGROV-1, 48 h
T47D = experiment: Antiproliferative activity against human T47D cells assessed as reduction in cell viability after 48 hrs by SRB assay
SK-OV-3 = experiment: Antiproliferative activity against human SKOV3 cells assessed as reduction in cell viability after 48 hrs by SRB assay; conditions: SK-OV-3, 48 h
MCF7 = experiment: Antiproliferative activity against human MCF7 cells assessed as reduction in cell viability after 48 hrs by SRB assay; conditions: MCF7, 48 h
UO-31 = experiment: Antiproliferative activity against human UO31 cells assessed as reduction in cell viability after 48 hrs by SRB assay; conditions: UO-31, 48 h
HL-60(TB) = experiment: Antiproliferative activity against human HL-60(TB) cells assessed as reduction in cell viability after 48 hrs by SRB assay; conditions: HL-60, 48 h
HCT-116 = experiment: Antiproliferative activity against human HCT116 cells assessed as reduction in cell viability after 48 hrs by SRB assay; conditions: HCT-116, 48 h
SF-295 = experiment: Antiproliferative activity against human SF295 cells assessed as reduction in cell viability after 48 hrs by SRB assay; conditions: SF-295, 48 h
ACHN = experiment: Antiproliferative activity against human ACHN cells assessed as reduction in cell viability after 48 hrs by SRB assay
A498 = experiment: Antiproliferative activity against human A498 cells assessed as reduction in cell viability after 48 hrs by SRB assay; conditions: A498, 48 h
786-0 = experiment: Antiproliferative activity against human 786-0 cells assessed as reduction in cell viability after 48 hrs by SRB assay; conditions: 786-0, 48 h
Hs-578T = experiment: Antiproliferative activity against human Hs 578T cells assessed as reduction in cell viability after 48 hrs by SRB assay
OVCAR-4 = experiment: Antiproliferative activity against human OVCAR4 cells assessed as reduction in cell viability after 48 hrs by SRB assay; conditions: OVCAR-4, 48 h
HCC 2998 = experiment: Antiproliferative activity against human HCC2998 cells assessed as reduction in cell viability after 48 hrs by SRB assay; conditions: HCC 2998, 48 h
SNB-75 = experiment: Antiproliferative activity against human SNB75 cells assessed as reduction in cell viability after 48 hrs by SRB assay; conditions: SNB-75, 48 h
KM12 = experiment: Antiproliferative activity against human KM12 cells assessed as reduction in cell viability after 48 hrs by SRB assay; conditions: KM12, 48 h
MDA-MB-435 = experiment: Antiproliferative activity against human MDA-MB-435 cells assessed as reduction in cell viability after 48 hrs by SRB assay; conditions: MDA-MB-435, 48 h
OVCAR-3 = experiment: Antiproliferative activity against human OVCAR3 cells assessed as reduction in cell viability after 48 hrs by SRB assay; conditions: OVCAR-3, 48 h
HCT-15 = experiment: Antiproliferative activity against human HCT15 cells assessed as reduction in cell viability after 48 hrs by SRB assay; conditions: HCT-15, 48 h
NCI/ADR-RES = experiment: Antiproliferative activity against human NCI/ADR-RES cells assessed as reduction in cell viability after 48 hrs by SRB assay
DU-145 = experiment: Antiproliferative activity against human DU145 cells assessed as reduction in cell viability after 48 hrs by SRB assay; conditions: DU-145, 48 h
HT-29 = experiment: Antiproliferative activity against human HT-29 cells assessed as reduction in cell viability after 48 hrs by SRB assay; conditions: HT-29, 48 h
COLO 205 = experiment: Antiproliferative activity against human COLO205 cells assessed as reduction in cell viability after 48 hrs by SRB assay; conditions: COLO 205, 48 h
SNB-19 = experiment: Antiproliferative activity against human SNB19 cells assessed as reduction in cell viability after 48 hrs by SRB assay; conditions: SNB-19, 48 h
HOP-92 = experiment: Antiproliferative activity against human HOP92 cells assessed as reduction in cell viability after 48 hrs by SRB assay; conditions: HOP-92, 48 h
U-251 = experiment: Antiproliferative activity against human U251 cells assessed as reduction in cell viability after 48 hrs by SRB assay; conditions: U-251, 48 h
PC-3 = experiment: Antiproliferative activity against human PC3 cells assessed as reduction in cell viability after 48 hrs by SRB assay; conditions: PC-3, 48 h
SW-620 = experiment: Antiproliferative activity against human SW620 cells assessed as reduction in cell viability after 48 hrs by SRB assay; conditions: SW-620, 48 h
CAKI-1 = experiment: Antiproliferative activity against human CAKI-1 cells assessed as reduction in cell viability after 48 hrs by SRB assay; conditions: CAKI-1, 48 h
MOLT-4 = experiment: Antiproliferative activity against human MOLT4 cells assessed as reduction in cell viability after 48 hrs by SRB assay; conditions: MOLT-4, 48 h
OVCAR-8 = experiment: Antiproliferative activity against human OVCAR8 cells assessed as reduction in cell viability after 48 hrs by SRB assay; conditions: OVCAR-8, 48 h
UACC-62 = experiment: Antiproliferative activity against human UACC62 cells assessed as reduction in cell viability after 48 hrs by SRB assay; conditions: UACC-62, 48 h, pooled result: one value given for 8 cell lines, strains, targets or settings
MDA-MB-468 = experiment: Antiproliferative activity against human MDA-MB-468 cells assessed as reduction in cell viability after 48 hrs by SRB assay; conditions: MDA-MB-468, 48 h
MDA-MB-231 = experiment: Antiproliferative activity against human MDA-MB-231 cells assessed as reduction in cell viability after 48 hrs by SRB assay; conditions: MDA-MB-231, 48 h
SN12C = experiment: Antiproliferative activity against human SN12C cells assessed as reduction in cell viability after 48 hrs by SRB assay
TK-10 = experiment: Antiproliferative activity against human TK10 cells assessed as reduction in cell viability after 48 hrs by SRB assay; conditions: TK-10, 48 h
RXF 393 = experiment: Antiproliferative activity against human RXF393 cells assessed as reduction in cell viability after 48 hrs by SRB assay; conditions: RXF 393, 48 h
NCI-H522 = experiment: Antiproliferative activity against human NCI-H522 cells assessed as reduction in cell viability after 48 hrs by SRB assay; conditions: NCI-H522, 48 h, pooled result: one value given for 8 cell lines, strains, targets or settings

C/C=C(\C)C(=O)O[C@H]1C=CC(=O)O[C@H]1CCC(=O)[C@H](C)O
pIC50 (OVCAR-5): 4.31 to 5.70
pIC50 (CCRF-CEM): 4.31 to 5.70
pIC50 (SR): 4.31 to 5.70
pIC50 (K562): 4.31 to 5.70
pIC50 (SF-539): 4.31 to 5.70
pIC50 (RPMI-8226): 4.31 to 5.70
pIC50 (BT-549): 4.31 to 5.70
pIC50 (SF-268): 4.31 to 5.70
pIC50 (IGROV-1): 4.31 to 5.70
pIC50 (T47D): 4.70
pIC50 (SK-OV-3): 4.31 to 5.70
pIC50 (MCF7): 4.70
pIC50 (UO-31): 4.31 to 5.70
pIC50 (HL-60(TB)): 4.31 to 5.70
pIC50 (HCT-116): 4.74
pIC50 (SF-295): 4.31 to 5.70
pIC50 (ACHN): 4.31 to 5.70
pIC50 (A498): 4.31 to 5.70
pIC50 (786-0): 4.31 to 5.70
pIC50 (Hs-578T): 4.70
pIC50 (OVCAR-4): 4.31 to 5.70
pIC50 (HCC 2998): 4.74
pIC50 (SNB-75): 4.31 to 5.70
pIC50 (KM12): 4.74
pIC50 (MDA-MB-435): 4.70
pIC50 (OVCAR-3): 4.31 to 5.70
pIC50 (HCT-15): 4.74
pIC50 (NCI/ADR-RES): 4.70
pIC50 (DU-145): 4.64
pIC50 (HT-29): 4.74
pIC50 (COLO 205): 4.74
pIC50 (SNB-19): 4.31 to 5.70
pIC50 (HOP-92): 4.31 to 5.70
pIC50 (U-251): 4.31 to 5.70
pIC50 (PC-3): 4.64
pIC50 (SW-620): 4.74
pIC50 (CAKI-1): 4.31 to 5.70
pIC50 (MOLT-4): 4.31 to 5.70
pIC50 (OVCAR-8): 4.31 to 5.70
pIC50 (UACC-62): 4.62
pIC50 (MDA-MB-468): 4.31 to 5.70
pIC50 (MDA-MB-231): 4.70
pIC50 (SN12C): 4.31 to 5.70
pIC50 (TK-10): 4.31 to 5.70
pIC50 (RXF 393): 4.31 to 5.70
pIC50 (NCI-H522): 4.59

C/C=C(\C)C(=O)O[C@H]1C=CC(=O)O[C@H]1CNC(=O)[C@H](C)O
pIC50 (OVCAR-5): 4.31 to 5.70
pIC50 (CCRF-CEM): 4.31 to 5.70
pIC50 (SR): 4.31 to 5.70
pIC50 (K562): 4.31 to 5.70
pIC50 (SF-539): 4.31 to 5.70
pIC50 (RPMI-8226): 4.31 to 5.70
pIC50 (BT-549): 4.31 to 5.70
pIC50 (SF-268): 4.31 to 5.70
pIC50 (IGROV-1): 4.31 to 5.70
pIC50 (T47D): 4.31 to 5.70
pIC50 (SK-OV-3): 4.31 to 5.70
pIC50 (MCF7): 4.31 to 5.70
pIC50 (UO-31): 4.52
pIC50 (HL-60(TB)): 4.31 to 5.70
pIC50 (HCT-116): 4.60
pIC50 (SF-295): 4.31 to 5.70
pIC50 (ACHN): 4.52
pIC50 (A498): 4.52
pIC50 (786-0): 4.52
pIC50 (Hs-578T): 4.31 to 5.70
pIC50 (OVCAR-4): 4.31 to 5.70
pIC50 (HCC 2998): 4.60
pIC50 (SNB-75): 4.31 to 5.70
pIC50 (KM12): 4.60
pIC50 (MDA-MB-435): 4.31 to 5.70
pIC50 (OVCAR-3): 4.31 to 5.70
pIC50 (HCT-15): 4.60
pIC50 (NCI/ADR-RES): 4.31 to 5.70
pIC50 (DU-145): 4.60
pIC50 (HT-29): 4.60
pIC50 (COLO 205): 4.60
pIC50 (SNB-19): 4.31 to 5.70
pIC50 (HOP-92): 4.31 to 5.70
pIC50 (U-251): 4.31 to 5.70
pIC50 (PC-3): 4.60
pIC50 (SW-620): 4.60
pIC50 (CAKI-1): 4.52
pIC50 (MOLT-4): 4.31 to 5.70
pIC50 (OVCAR-8): 4.31 to 5.70
pIC50 (UACC-62): 4.55
pIC50 (MDA-MB-468): 4.31 to 5.70
pIC50 (MDA-MB-231): 4.31 to 5.70
pIC50 (SN12C): 4.52
pIC50 (TK-10): 4.52
pIC50 (RXF 393): 4.52
pIC50 (NCI-H522): 4.57

From ChEMBL document CHEMBL4373641, “Synthesis and direct comparison of the anticancer activities of phomopsolides D and E and two 7-oxa-/7-aza-analogues” (Medchemcomm, 2019)
